Where two headings read alike, the source gives them in different places.
Legend:
[1] = test system: Capan-1 (pancreatic cancer cell line); assay: In vitro cell proliferation inhibition test with isobologram analysis (Test Example 3), Capan-1; type: cell-based, human; details: for effect of combined use with Lipo in isobologram analysis / DNA damage repair inhibitor (Ceralasertib) FIC: Capan-1; for effect of combined use with Lipo in isobologram analysis: DNA damage repair inhibitor combined with Lipo, 6 days culture; for IC50: Homo sapiens, CAPAN-1, Capan-1, read-out: IC50 value (nmol/L) of DNA damage repair inhibitor (Ceralasertib) at each of concentration points of Lipo
Procedure: (§1) A Cell Counting Kit-8 (Dojindo Molecular Technologies. Inc.) was used for a living cell detection method, and the absorbance at 460 nm after 4 hours of reagent addition was measured with a microplate reader to obtain the IC50 value. [table] As various DNA damage repair inhibitors to be used in combination with the liposome composition, the following DNA damage repair inhibitors were used; ceralasertib ([…] Biotechnology, Inc.) as an ATR inhibitor, prexasertib ([…] Biotechnology, Inc.) as a CHK1/2 inhibitor, […] Biotechnology, Inc.) as a DNA-PK inhibitor, […] Biotechnology, Inc.) as an ATM inhibitor, ZN-c3 ([…] Biotechnology, Inc.) as a WEE1 inhibitor, and olaparib ([…] Biotechnology, Inc.) as a PARP inhibitor. […] [table] […] First, the IC50 value of Lipo alone and the IC50 value of various DNA damage repair inhibitors alone were determined. Next, various DNA damage repair inhibitors were used in combination at each of the set concentration points of Lipo, and the IC50 value of the DNA damage repair inhibitors was determined. A value obtained by […] was denoted as “Lipo FIC”, and a value obtained by dividing this value by the IC50 value of the various DNA damage repair inhibitors was denoted as “various DNA damage repair inhibitor FIC”, and then these two values were recorded as one set of values. […] In addition, Lipo was used in combination at each of the concentration points of the various DNA damage repair inhibitors which were set in the same manner, and the IC50 value of the Lipo was determined. A value obtained by dividing this value by the IC50 value of Lipo alone was denoted as “Lipo FIC”, and a value obtained by dividing this value by the IC50 value of the various DNA damage repair inhibitors was denoted as “various DNA damage repair inhibitor FIC”, and then these two values were recorded as one set of values. […] As shown in Table 8 and Table 9, an isobologram was obtained by plotting each set of these values on the graph of various DNA damage repair inhibitors FIC v.s. Lipo FIC. […] A case of being plotted to the right indicates an “antagonistic effect”, which is regarded as an inappropriate effect of combined use. FIG. 5 to FIG. 21 show the results.

[2] = test system: ES-2 (ovarian cancer cell line); assay: In vitro cell proliferation inhibition test with isobologram analysis (Test Example 3), ES-2; type: cell-based; details: DNA damage repair inhibitor combined with Lipo, 3 days culture
Procedure: as §1

[3] = test system: DMS114 (lung cancer cell line); assay: In vitro cell proliferation inhibition test with isobologram analysis (Test Example 3), DMS 114; type: cell-based; details: DNA damage repair inhibitor combined with Lipo, 5 days culture
Procedure: as §1

[4] = test system: Capan-1 cells (human pancreatic cancer cell line) subcutaneous tumor; assay: Drug efficacy in pancreatic cancer cell line (Capan-1) model, combined use of Lipo and olaparib (Test Example 1); type: in vivo, mouse Balb/cAJcl-nu/nu; details: same dosing as Table 1; relative to no-drug group; day 28

COc1ccc([C@@H](O)c2cc(-c3ncnc4cc(N5CCOCC5)ccc34)c(F)cc2Cl)nn1 [Example M3814]
effect of combined use with Lipo in isobologram analysis [1]: synergistic effect | effect of combined use with Lipo in isobologram analysis [2]: additive effect | effect of combined use with Lipo in isobologram analysis [3]: synergistic effect

C[C@@H]1COCCN1c1cc(C2([S@](C)(=N)=O)CC2)nc(-c2cc[nH]c3nccc2-3)n1 [Ceralasertib]
effect of combined use with Lipo in isobologram analysis [1]: synergistic effect | DNA damage repair inhibitor (Ceralasertib) FIC ([1]; Table 8, Lipo 0.0 nmol/L): 1.0 | DNA damage repair inhibitor (Ceralasertib) FIC ([1]; Table 8, Lipo 0.14 nmol/L): 0.7 | DNA damage repair inhibitor (Ceralasertib) FIC ([1]; Table 8, Lipo 0.41 nmol/L): 0.9 | DNA damage repair inhibitor (Ceralasertib) FIC ([1]; Table 8, Lipo 1.23 nmol/L): 0.9 | DNA damage repair inhibitor (Ceralasertib) FIC ([1]; Table 8, Lipo 3.7 nmol/L): 0.2 | DNA damage repair inhibitor (Ceralasertib) FIC ([1]; Table 8, Lipo 11.1 nmol/L): 0.02 | DNA damage repair inhibitor (Ceralasertib) FIC ([1]; Table 9, ceralasertib 0.0 nmol/L): 0.0 | DNA damage repair inhibitor (Ceralasertib) FIC ([1]; Table 9, ceralasertib 4.57 nmol/L with Lipo): 0.01 | DNA damage repair inhibitor (Ceralasertib) FIC ([1]; Table 9, ceralasertib 13.7 nmol/L with Lipo): 0.02 | DNA damage repair inhibitor (Ceralasertib) FIC ([1]; Table 9, ceralasertib 41.2 nmol/L with Lipo): 0.05 | DNA damage repair inhibitor (Ceralasertib) FIC ([1]; Table 9, ceralasertib 123 nmol/L with Lipo): 0.1 | DNA damage repair inhibitor (Ceralasertib) FIC ([1]; Table 9, ceralasertib 370 nmol/L with Lipo): 0.4 | IC50 ([1]; Lipo 0.0 nmol/L (ceralasertib alone)): 893 nmol/L | IC50 ([1]; combined with Lipo 0.14 nmol/L): 634 nmol/L | IC50 ([1]; combined with Lipo 0.41 nmol/L): 809 nmol/L | IC50 ([1]; combined with Lipo 1.23 nmol/L): 798 nmol/L | IC50 ([1]; combined with Lipo 3.7 nmol/L): 181 nmol/L | IC50 ([1]; combined with Lipo 11.1 nmol/L): 14.9 nmol/L | effect of combined use with Lipo in isobologram analysis [2]: synergistic effect | effect of combined use with Lipo in isobologram analysis [3]: synergistic effect

COc1cc2ncc3c(c2cc1-c1cn(C)nc1C)n(-c1c(F)cncc1OC)c(=O)n3C [Example M4076]
effect of combined use with Lipo in isobologram analysis [1]: additive effect | effect of combined use with Lipo in isobologram analysis [2]: synergistic effect | effect of combined use with Lipo in isobologram analysis [3]: synergistic effect

C=CCn1c(=O)c2cnc(Nc3ccc(N4CCN(C)CC4)cc3)nc2n1-c1ccc2c(n1)[C@@](O)(CC)CC2 [ZN-c3]
effect of combined use with Lipo in isobologram analysis [1]: additive effect | effect of combined use with Lipo in isobologram analysis [2]: synergistic effect | effect of combined use with Lipo in isobologram analysis [3]: additive effect

CC[C@@]1(O)C(=O)OCc2c1cc1n(c2=O)Cc2cc3c(CN(C)C)c(O)ccc3nc2-1 [Topotecan]
Drug efficacy (tumor diameter) 28 days after administration, proportion to Comparative Example 1 [4]: (80%) | Safety (body weight) 28 days after administration, proportion to Comparative Example 1 (mouse, in vivo): (96%)

COc1cccc(OCCCN)c1-c1cc(Nc2cnc(C#N)cn2)n[nH]1 [prexasertib]
effect of combined use with Lipo in isobologram analysis [2]: synergistic effect | effect of combined use with Lipo in isobologram analysis [3]: synergistic effect

O=C(c1cc(Cc2n[nH]c(=O)c3ccccc23)ccc1F)N1CCN(C(=O)C2CC2)CC1 [Olaparib]
Drug efficacy (tumor diameter) 28 days after administration, proportion to Comparative Example 1 [4]: (80%) | effect of combined use with Lipo in isobologram analysis [1]: synergistic effect | effect of combined use with Lipo in isobologram analysis [2]: synergistic effect | effect of combined use with Lipo in isobologram analysis [3]: synergistic effect | Safety (body weight: g) 28 days after administration (Capan-1 tumor-bearing female nude mice, Lipo 0.5 mg/kg or topotecan 5 mg/kg i.v. weekly x 4, olaparib 50 mg/kg i.p. daily x 6 days/week x 4 weeks, day 28): 103 g | Safety (body weight) 28 days after administration, proportion to Comparative Example 1 (same dosing as Table 1, relative to no-drug group, day 28): (97%)
